In PubChem BioAssay AID504544 (Sanford-Burnham Center for Chemical Genomics, 2011):
pIC50: −log10 of the molar value. Active and inactive are the calls of the source. How the calls were made is not given here.

system: S. cerevisiae tim23-1 mutant growth, luminescence; assay: tim23-1 yeast growth suppression potency – luminescence, uHTS hits, counter-screen for tim10-1 yeast inhibitor project, dose response (AID 504544)

Structure (SMILES)	pIC50	IC50
COc1ccc(C(=O)O/N=C(\N)c2ccccc2Cl)cc1OC	4.92	
Cn1c(NCCCO)nc2c(c1=O)C1(CCCCC1)Cc1ccccc1-2	5.06	
COc1ccc2sc(N(CCCN(C)C)C(=O)c3ccc(S(=O)(=O)N4CCCc5ccccc54)cc3)nc2c1	4.92	
COc1ccc(NC2CCN(C3CC(=O)N(c4ccc(F)c(Cl)c4)C3=O)CC2)cc1 (stereo not drawn)	5.25	
O=c1c2ccccc2[se]n1-c1ccccc1	6.06	
CCOC(=O)c1ccc(N=c2ssnc2Cl)cc1	5.65	
O=[N+]([O-])c1ccccc1N/N=C/c1c[nH]c2ccccc12	4.80	
O=C(NC(=S)NNC(=O)c1ccccc1[N+](=O)[O-])c1ccc(Br)cc1	4.90	
Nc1ccccc1C(=O)/C=C/c1ccc2c(c1)OCO2	4.72	
COc1cc(C(=O)Nc2ccc(Cl)c(C(F)(F)F)c2)cc(OC)c1OC	4.48	
COc1ccc(C(=O)O/N=C(\N)Cc2ccc(Cl)c(Cl)c2)cc1OC	5.86	
CN=C(Nc1cc(Cl)ccc1Cl)SC1CC(=O)N(c2ccc(C(=O)OC)cc2)C1=O (stereo not drawn)	4.81	
O=C(Nc1cccc(N2C(=O)C=CC2=O)c1)c1cccs1	5.60	
O=C(Nc1cccnc1)c1cn(-c2ccccc2)nc1-c1cccs1	4.55	
O=C1CS(=O)(=O)N(Cc2cccc(F)c2)c2ccc(Br)cc21	4.90	
Cc1ccc(F)c([C@H]2C3C=CCC(c4ccccc4)C3C(=O)N2Cc2ccccc2)c1 (stereo partly drawn)	4.83	
COc1ccc(-c2[nH]ncc2N=Nc2ccccc2)cc1	5.03	
CCCCCCC(=O)N(O)C1CC(=O)N(c2ccc(C)cc2)C1=O (stereo not drawn)	5.16	
O=C(NNC(=S)Nc1ccc(Cl)cc1)c1ccccc1OC(F)F	5.06	
Cc1cc([N+](=O)[O-])ccc1-c1ccc(C2Nc3ccccc3C(=O)N2O)o1 (stereo not drawn)	4.74	

Structure (SMILES)	pIC50	IC50
N#C/C(=N/Nc1ccc(OC(F)(F)F)cc1)C(N)=S	5.88	
N/C(=N\OC(=O)c1ccc(F)cc1)c1ccc(Br)cc1	5.50	
CCOC(=O)/C=C/C(=O)Nc1cccc([N+](=O)[O-])c1	5.58	
S=C(NCCCc1ccccc1)Nc1ccc(Cl)cc1	5.15	
CN(C)CCCN(C(=O)c1cc2cc([N+](=O)[O-])ccc2s1)c1nc2cc3c(cc2s1)OCCO3	4.87	
CCOC(=O)c1cc(-c2cccs2)nc2c1c(C)nn2-c1ccccn1	4.76	
CC(C)Nc1nnc(Sc2ccc(Cl)cc2[N+](=O)[O-])s1	5.58	
Cc1cc(C)cc(N2C(=O)CC(Sc3nnnn3-c3ccccc3)C2=O)c1 (stereo not drawn)	5.90	
COc1ccc(-c2sc3cc4c(cc3c2C#CC2(N)CCCCC2)OCO4)cc1	5.03	
O=C(O)/C=C/C(=O)c1ccc2c(c1)CCc1ccccc1-2	5.29	
NC(=NCCCCCCN=C(N)/N=C(\N)Nc1ccc(Cl)cc1)/N=C(\N)Nc1ccc(Cl)cc1		> 100 µM (inactive)
CCOC(=O)/C=C/C(=O)OCC(=O)Nc1ccc([N+](=O)[O-])cc1	5.13	
CC(=O)c1ccc(NC(=S)NC(C)c2ccc(Cl)cc2Cl)cc1 (stereo not drawn)	4.86	
Cc1ccccc1/C=C/C(=O)c1ccc([N+](=O)[O-])o1	5.82	
CCCn1c(CC)nc([N+](=O)[O-])c1S(=O)(=O)c1ccccc1	5.18	
O=c1oc2ccccc2c(O)c1/C=C1\C=Nc2ccccc21	5.26	
Cc1ccc(NC(=S)/N=C(\N)Nc2nc(C)c3cc(C)ccc3n2)c(C)c1	4.77	
Cc1onc(-c2ccc3c(c2)OCO3)c1-c1ccc2[nH]ccc2c1	4.97	
Cc1cc(C)c(CSc2ncc(-c3ccc([N+](=O)[O-])cc3)[nH]2)c(C)c1	4.76	
CCOC(=O)c1ccc(N2C(=O)C=CC2=O)cc1	6.32	

Structure (SMILES)	pIC50	IC50
COc1ccc(-c2nncnn2)cc1	5.41	
Cc1ccc(NC2=C/C(=N\S(=O)(=O)c3cccs3)c3ccccc3C2=O)c(C)c1	4.92	
Cc1ccc(F)c([C@H]2[C@@H]3C=CCC[C@@]3(C)C(=O)N2Cc2ccccc2)c1	4.74	
NNc1nc(-c2ccccc2)c2cc(Br)ccc2n1	4.66	
CN(CCCC(=O)O)c1ccc(N=Nc2ccc([N+](=O)[O-])cc2)cc1	4.94	
COC(=O)C(C(C)=O)C1=C/C(=N\S(=O)(=O)c2ccc(C)cc2)c2ccccc2C1=O (stereo not drawn)	5.01	
CC(=O)N1CCN(c2cc(N3CCc4ccccc4C3)c(F)cc2[N+](=O)[O-])CC1	4.46	
C/C(=N\NC(=S)NCc1ccccc1)c1ccc(Cl)s1	4.76	
COc1ccc(-c2cc(C3CC3)nc3sc(C#N)c(N)c23)cc1	5.16	
Nc1nc(N)c(C=Nc2ccc(Br)cc2)c(Nc2ccc(Br)cc2)n1	4.85	
Fc1ccc(CNC(=S)Nc2cccc(C(F)(F)F)c2)cc1	4.91	
COc1cc(/C=C/c2ccc3cccc(O)c3n2)c(Br)cc1O	4.74	
CC(C)C(c1nnnn1C1CCCC1)N1CCCc2ccccc21 (stereo not drawn)	4.86	
Fc1c(F)c(C(F)(F)F)c(F)c(F)c1N/N=C\c1cccs1	5.13	
Clc1ccc(CNc2nc(CN3CCOCC3)nc3scc(-c4ccccc4)c23)cc1	4.94	
N/C(Cc1ccc(Cl)cc1Cl)=N\OC(=O)Cc1ccc(Cl)cc1	5.86	
O=C(NNC(=S)Nc1cccc(C(F)(F)F)c1)c1ccc(Cl)cc1Cl	5.15	
CCOC(=O)c1c(OCC)[nH]c2c1cc(O)c1ccccc12	4.77	
